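The concentration for 50% growth inhibition is given as GI50. TGI: total growth inhibition.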
What was measured:
Assay in all cases: NCI-60 cell line screen, 384-well format
786-0 renal = test system: 786-0 renal
A498 renal = test system: A498 renal
A549 NSCLC = test system: A549 NSCLC
ACHN renal = test system: ACHN renal
BT-549 breast = test system: BT-549 breast
CAKI-1 renal = test system: CAKI-1 renal
CCRF-CEM leukemia = test system: CCRF-CEM leukemia
COLO 205 colon = test system: COLO 205 colon
DU-145 prostate = test system: DU-145 prostate
EKVX NSCLC = test system: EKVX NSCLC
HCC-2998 colon = test system: HCC-2998 colon
HCT-116 colon = test system: HCT-116 colon
HCT-15 colon = test system: HCT-15 colon
HL-60(TB) leukemia = test system: HL-60(TB) leukemia
HOP-62 NSCLC = test system: HOP-62 NSCLC
HOP-92 NSCLC = test system: HOP-92 NSCLC
HS 578T breast = test system: HS 578T breast
HT29 colon = test system: HT29 colon
IGROV1 ovarian = test system: IGROV1 ovarian
K-562 leukemia = test system: K-562 leukemia
KM12 colon = test system: KM12 colon
LOX IMVI melanoma = test system: LOX IMVI melanoma
M14 melanoma = test system: M14 melanoma
MALME-3M melanoma = test system: MALME-3M melanoma
MCF7 breast = test system: MCF7 breast
MDA-MB-231 breast = test system: MDA-MB-231 breast
MDA-MB-435 melanoma = test system: MDA-MB-435 melanoma
MDA-MB-468 breast = test system: MDA-MB-468 breast
MOLT-4 leukemia = test system: MOLT-4 leukemia
NCI-H226 lung = test system: NCI-H226 lung
NCI-H23 lung = test system: NCI-H23 lung
NCI-H322M lung = test system: NCI-H322M lung
NCI-H460 NSCLC = test system: NCI-H460 NSCLC
NCI-H522 lung = test system: NCI-H522 lung
NCI/ADR-RES ovarian = test system: NCI/ADR-RES ovarian
OVCAR-3 ovarian = test system: OVCAR-3 ovarian
OVCAR-4 ovarian = test system: OVCAR-4 ovarian
OVCAR-8 ovarian = test system: OVCAR-8 ovarian
PC-3 prostate = test system: PC-3 prostate
RPMI-8226 leukemia = test system: RPMI-8226 leukemia
RXF 393 renal = test system: RXF 393 renal
SF-268 CNS = test system: SF-268 CNS
SF-295 CNS = test system: SF-295 CNS
SF-539 CNS = test system: SF-539 CNS
SK-MEL-28 melanoma = test system: SK-MEL-28 melanoma
SK-MEL-5 melanoma = test system: SK-MEL-5 melanoma
SK-OV-3 ovarian = test system: SK-OV-3 ovarian
SN12C renal = test system: SN12C renal
SNB-19 CNS = test system: SNB-19 CNS
SNB-75 CNS = test system: SNB-75 CNS
SR leukemia = test system: SR leukemia
SW-620 colon = test system: SW-620 colon
T-47D breast = test system: T-47D breast
TK-10 renal = test system: TK-10 renal
U251 glioblastoma = test system: U251 glioblastoma
UACC-257 melanoma = test system: UACC-257 melanoma
UACC-62 melanoma = test system: UACC-62 melanoma
UO-31 renal = test system: UO-31 renal

SMILES: Nc1cc(C(F)(F)F)c(-c2nc(N3CCOCC3)nc(N3CCOCC3)n2)cn1
- GI50 ([…]-0 renal): 1320 nM
- TGI (786-0 renal): 12100 nM
- GI50 (A498 renal): 320 nM
- TGI (A498 renal): 2260 nM
- GI50 (A549 NSCLC): 902 nM
- TGI (A549 NSCLC): 9000 nM
- GI50 (ACHN renal): 570 nM
- TGI (ACHN renal): 8660 nM
- GI50 (BT-549 breast): 678 nM
- TGI (BT-549 breast): 4420 nM
- GI50 (CAKI-1 renal): 292 nM
- TGI (CAKI-1 renal): 2950 nM
- GI50 (CCRF-CEM leukemia): 1340 nM
- TGI (CCRF-CEM leukemia): 10900 nM
- GI50 (COLO 205 colon): 544 nM
- TGI (COLO 205 colon): 9660 nM
- GI50 (DU-145 prostate): 847 nM
- TGI (DU-145 prostate): 21300 nM
- GI50 (EKVX NSCLC): 342 nM
- TGI (EKVX NSCLC): 3530 nM
- GI50 (HCC-2998 colon): 1100 nM
- TGI (HCC-2998 colon): 48900 nM
- GI50 (HCT-116 colon): 833 nM
- TGI (HCT-116 colon): 22500 nM
- GI50 (HCT-15 colon): 497 nM
- TGI (HCT-15 colon): > 100000 nM
- GI50 (HL-60(TB) leukemia): 170 nM
- TGI (HL-60(TB) leukemia): 3430 nM
- GI50 (HOP-62 NSCLC): 1310 nM
- TGI (HOP-62 NSCLC): 14100 nM
- GI50 (HOP-92 NSCLC): 274 nM
- TGI (HOP-92 NSCLC): 2120 nM
- GI50 (HS 578T breast): 276 nM
- TGI (HS 578T breast): 1860 nM
- GI50 (HT29 colon): 554 nM
- TGI (HT29 colon): 14800 nM
- GI50 (IGROV1 ovarian): 119 nM
- TGI (IGROV1 ovarian): 468 nM
- GI50 (K-562 leukemia): 2780 nM
- TGI (K-562 leukemia): 40500 nM
- GI50 (KM12 colon): 1270 nM
- TGI (KM12 colon): 14600 nM
- GI50 (LOX IMVI melanoma): 1570 nM
- TGI (LOX IMVI melanoma): 9360 nM
- GI50 (M14 melanoma): 616 nM
- TGI (M14 melanoma): 12500 nM
- GI50 (MALME-3M melanoma): 174 nM
- TGI (MALME-3M melanoma): 1030 nM
- GI50 (MCF7 breast): 151 nM
- TGI (MCF7 breast): 11900 nM
- GI50 (MDA-MB-231 breast): 834 nM
- TGI (MDA-MB-231 breast): 38700 nM
- GI50 (MDA-MB-435 melanoma): 1600 nM
- TGI (MDA-MB-435 melanoma): 9730 nM
- GI50 (MDA-MB-468 breast): 353 nM
- TGI (MDA-MB-468 breast): 2200 nM
- GI50 (MOLT-4 leukemia): 293 nM
- TGI (MOLT-4 leukemia): 1610 nM
- GI50 (NCI-H226 lung): 563 nM
- TGI (NCI-H226 lung): 4350 nM
- GI50 (NCI-H23 lung): 552 nM
- TGI (NCI-H23 lung): 15900 nM
- GI50 (NCI-H322M lung): 534 nM
- TGI (NCI-H322M lung): 11500 nM
- GI50 (NCI-H460 NSCLC): 246 nM
- TGI (NCI-H460 NSCLC): 10400 nM
- GI50 (NCI-H522 lung): 360 nM
- TGI (NCI-H522 lung): 10200 nM
- GI50 (NCI/ADR-RES ovarian): 1920 nM
- TGI (NCI/ADR-RES ovarian): 17300 nM
- GI50 (OVCAR-3 ovarian): 354 nM
- TGI (OVCAR-3 ovarian): 3920 nM
- GI50 (OVCAR-4 ovarian): 1480 nM
- TGI (OVCAR-4 ovarian): 7900 nM
- GI50 (OVCAR-8 ovarian): 1120 nM
- TGI (OVCAR-8 ovarian): 93600 nM
- GI50 (PC-3 prostate): 291 nM
- TGI (PC-3 prostate): 4270 nM
- GI50 (RPMI-8226 leukemia): 221 nM
- TGI (RPMI-8226 leukemia): 1270 nM
- GI50 (RXF 393 renal): 1150 nM
- TGI (RXF 393 renal): 4960 nM
- GI50 (SF-268 CNS): 1460 nM
- TGI (SF-268 CNS): 18200 nM
- GI50 (SF-295 CNS): 405 nM
- TGI (SF-295 CNS): 2440 nM
- GI50 (SF-539 CNS): 1150 nM
- TGI (SF-539 CNS): 13700 nM
- GI50 (SK-MEL-28 melanoma): 461 nM
- TGI (SK-MEL-28 melanoma): 6540 nM
- GI50 (SK-MEL-5 melanoma): 503 nM
- TGI (SK-MEL-5 melanoma): 2810 nM
- GI50 (SK-OV-3 ovarian): 332 nM
- TGI (SK-OV-3 ovarian): 2040 nM
- GI50 (SN12C renal): 195 nM
- TGI (SN12C renal): 2300 nM
- GI50 (SNB-19 CNS): 8530 nM
- TGI (SNB-19 CNS): 50200 nM
- GI50 (SNB-75 CNS): 288 nM
- TGI (SNB-75 CNS): 2920 nM
- TGI (SR leukemia): 255 nM
- GI50 (SW-620 colon): 2600 nM
- TGI (SW-620 colon): > 100000 nM
- GI50 (T-47D breast): 107 nM
- TGI (T-47D breast): 583 nM
- GI50 (TK-10 renal): 432 nM
- TGI (TK-10 renal): 3870 nM
- GI50 (U251 glioblastoma): 3230 nM
- TGI (U251 glioblastoma): 95500 nM
- GI50 (UACC-257 melanoma): 1700 nM
- TGI (UACC-257 melanoma): 20800 nM
- GI50 (UACC-62 melanoma): 520 nM
- TGI (UACC-62 melanoma): 3790 nM
- GI50 (UO-31 renal): 426 nM
- TGI (UO-31 renal): 19200 nM

Reference: PubChem BioAssay (NCI)
